According to patent US8173694B2, “Therapeutic agent” (Pentraxin Therapeutics Limited, priority 2001, dated 2012):

Legend:
mouse SAP = molecular target: T1, mouse SAP (Mus musculus, UniProt P12246); assay: Endogenous mouse SAP in amyloid deposits of mice with AA amyloidosis; type: in vivo
T1 construct: all the endogenous mouse SAP in the deposits; from tissue; host or cells: mice in vivo: amyloidotic organs, or plasma of normal wild type mice
T1 sequence (P12246 21-224): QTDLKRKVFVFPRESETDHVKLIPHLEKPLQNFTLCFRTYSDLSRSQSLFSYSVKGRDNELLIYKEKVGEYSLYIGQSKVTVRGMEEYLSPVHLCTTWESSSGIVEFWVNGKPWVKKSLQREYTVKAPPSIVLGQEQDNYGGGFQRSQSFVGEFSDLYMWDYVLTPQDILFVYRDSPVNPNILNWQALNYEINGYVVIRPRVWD
Method: (§1) Clearance from the amyloid deposits, catabolism and excretion of the human SAP tracer were monitored globally by whole body counting of the mice (left), and the total amount of mouse SAP in the amyloidotic organs was determined after killing the animals on day 5 (right). […] Immediately after the 15 minute bleed, two groups, one that had received human SAP and the other mouse SAP, received a single intraperitoneal injection of 5 mg of (R)-1-[6-(R)-2-Carboxy-pyrrolidin-1-yl]-6-oxo-hexanoyl]pyrrolidine-2-carboxylic acid (desapin). Tracer remaining in the circulation is expressed as the mean (SD) percentage of the amount at the 15 minute time point for each group. […] In one of each of the pairs of groups receiving mouse or human SAP respectively, the tracer had been mixed with (R)-1-[6-(R)-2-Carboxy-pyrrolidin-1-yl]-6-oxo-hexanoyl]pyrrolidine-2-carboxylic acid (desapin) and incubated in vitro before injection into the animals. Tracer remaining in the circulation is expressed as mean (SD) total radioactivity per gram of blood in each group. Bottom panel: effect of administration of (R)-1-[6-(R)-2-Carboxy-pyrrolidin-1-yl]-6-oxo-hexanoyl]pyrrolidine-2-carboxylic acid (desapin) in the drinking water at the concentrations shown, on circulating human SAP values in human SAP transgenic mice. Mice of approximately 20 g body weight consume about 3 ml water per day. […]

SAP = SAP (Homo sapiens, UniProt P02743); assay: Circulating human SAP in human SAP transgenic mice, drug in drinking water; type: in vivo, mouse; set-up: on circulating human SAP values in human SAP transgenic mice; from tissue; host or cells: plasma of human SAP transgenic mice; details: drug in the drinking water
Method: as §1

radiolabelled human SAP = molecular target: T2, radiolabelled human SAP (Homo sapiens, UniProt P02743); assay: Plasma clearance of radiolabelled human SAP tracer in mice; type: in vivo, mouse
T2 construct: intravenous injection of ^125I-labelled pure human or mouse SAP at time zero
Method: as §1

radiolabelled mouse SAP = molecular target: T3, radiolabelled mouse SAP (Mus musculus, UniProt P12246); assay: Plasma clearance of radiolabelled mouse SAP tracer in mice; type: in vivo
T3 construct: intravenous injection of ^125I-labelled pure human or mouse SAP at time zero
T3 sequence (P12246 21-224): T1 sequence (P12246 21-224)
Method: as §1

123I-SAP = 123I-SAP (Homo sapiens, UniProt P02743); assay: Quantitative whole body 123I-SAP scintigraphy in patients during drug infusion; type: in vivo
Source text: This patient, with a modest load of AL amyloid in the spleen and kidneys, had notable blood pool background of tracer in the heart and circulation before administration of the drug.
This patient, with modest load of AL amyloid in the spleen and kidneys, had notable blood pool background of tracer in the heart and circulation before administration of the drug.
Direct evidence for depletion of SAP from amyloid in the organs and for the mechanism of action of (R)-1-[6-(R)-2-Carboxy-pyrrolidin-1-yl]-6-oxo-hexanoyl]pyrrolidine-2-carboxylic acid was obtained by quantitative whole body scintigraphy using ^123I-SAP as a tracer. Each patient received a standard dose of ^123I-SAP 24 h before the (R)-1-[6-(R)-2-Carboxy-pyrrolidin-1-yl]-6-oxo-hexanoyl]pyrrolidine-2-carboxylic acid infusion started and was scanned immediately before treatment to provide a baseline image and values for localisation of tracer to the amyloid deposits. They were then scanned at intervals thereafter, up to the end of the 48 h infusion. (R)-1-[6-(R)-2-Carboxy-pyrrolidin-1-yl]-6-oxo-hexanoyl]pyrrolidine-2-carboxylic acid caused dramatic clearance of tracer from the plasma, exactly paralleling both in the scintigraphic images and in counting of blood samples, the SAP depletion monitored by immunoassay of the serum. […] At the same time there was a marked decrease in the retention of tracer in amyloid deposits elsewhere, exemplified by the spleen and kidneys, in contrast to the usual situation in control untreated amyloidosis patients (Table 2; FIG. 6).
All patients had systemic AL amyloidosis and received a standard intravenous tracer dose of ^123I-SAP at time zero. After whole body quantitative scintigraphic imaging at 24 h, uptake in liver and spleen were taken as 100% for each individual. Intravenous infusion of the drug (R)-1-[6-(R)-2-Carboxy-pyrrolidin-1-yl]-6-oxo-hexanoyl]pyrrolidine-2-carboxylic acid was then started and scintigraphy with organ counting was repeated at 48 h. The controls received no treatment. Significance of differences between the two groups was sought by t-test.

[1] = single intraperitoneal injection of 5 mg
[2] = tracer preincubated with drug before intravenous injection into normal mice
[3] = 24 h after starting infusion, second patient
[4] = 48 h after starting infusion, second patient
[5] = 48 h after tracer injection (drug infusion started at 24 h), 24 h uptake = 100%, 7 patients

Chain of 123I-SAP (P02743 20-223): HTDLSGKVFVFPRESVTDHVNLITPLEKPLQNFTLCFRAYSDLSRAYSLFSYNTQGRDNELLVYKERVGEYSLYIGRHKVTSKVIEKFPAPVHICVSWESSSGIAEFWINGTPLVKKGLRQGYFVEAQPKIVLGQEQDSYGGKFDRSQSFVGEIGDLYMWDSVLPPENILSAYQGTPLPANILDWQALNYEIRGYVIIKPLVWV
T2 sequence (P02743 20-223): as above
Chain of SAP (P02743 20-223): as above

O=C(O)[C@H]1CCCN1C(=O)CCCCC(=O)N1CCC[C@@H]1C(=O)O [(R)-1-[6-(R)-2-Carboxy-pyrrolidin-1-yl]-6-oxo-hexanoyl]pyrrolidine-2-carboxylic acid]
Removal of endogenous mouse SAP from amyloid deposits (mouse SAP; 15 mg/kg/day, continuous infusion): removed all the mouse SAP | Dose required to dissociate any endogenous mouse SAP significantly (mouse SAP; continuous infusion for 5 days via osmotic pump): 1.5 mg/kg/day | Circulating human SAP (SAP): rapidly depleted | Plasma clearance of radiolabelled human SAP tracer (radiolabelled human SAP; [1]): accelerated | Clearance of radiolabelled human SAP preincubated with drug in vitro (radiolabelled human SAP; [2]): extremely rapidly cleared | Clearance of radiolabelled mouse SAP (radiolabelled mouse SAP; [1]): no significant effect | Clearance of radiolabelled mouse SAP preincubated with drug in vitro (radiolabelled mouse SAP; [2]): extremely rapidly cleared | Blood pool background of 123I-SAP tracer (123I-SAP; 6 h after starting infusion, first patient): completely absent | Kidney counts, of time 0 (123I-SAP; [3]): 77% | Spleen counts, of time 0 (123I-SAP; [3]): 85% | Blood pool background of 123I-SAP tracer (123I-SAP; 24 h and 48 h after starting infusion, second patient): completely absent | Kidney counts, of time 0 (123I-SAP; [4]): 50% | Spleen counts, of time 0 (123I-SAP; [4]): 54% | 123I-SAP retention [mean (SD)%], Liver (123I-SAP; [5]): 125 (20) % | 123I-SAP retention [mean (SD)%], Spleen (123I-SAP; [5]): 54 (18) % | Blood pool signal of 123I-SAP tracer (123I-SAP; by 6 h after starting treatment and persisting thereafter): virtually disappeared
